Laboratory results: article PMC10225205 (Cancer Medicine, 2023)
Several values for one entry are separate records, joined by “and”; a condition that tells them apart may be missing. Equal values may be shown once. Read-outs that look alike come from different tables or passages of the source.

Columns and labels:
[1] = test system: refractory advanced malignancies; conditions: cited from earlier work
[2] = FIGHT-102 pemigatinib plasma/urine pharmacokinetics (noncompartmental); conditions: for AUC(0-t) / AUC / Cmax / Vd/F / Tmax / half-life: human, in vivo, 13.5 mg; for AUC: AUCss,0-24h; for Vd/F: Vz/F; for Tmax: median; for half-life: t½
Procedure: (§1) Postdose samples were collected at 0.5, 1, 2, 4, 6, and 8 h on Day 1, and at 1 h on Day 14 of Cycle 1. For patients in the CD regimen, a postdose sample at 6 h on Day 14 was also collected.
(§2) Pharmacodynamic data were presented using summary statistics.

FGF23 = assay: Plasma FGF23 concentration (Meso Scale Discovery assay); assay type: in vivo, human
Procedure: Plasma samples for pharmacodynamic assessments were collected predose on Days 1, 14, and 15 of Cycle 1 and any time on Day 1 (±3 days) of the subsequent cycles. […] Baseline FGF23 concentrations were assessed in plasma samples collected on Days 1 and 15 of Cycle 1 using a commercially available assay (Meso Scale Discovery). […] Inhibition of FGFR2 was assessed using an ex vivo assay that measured phosphorylated FGFR2α concentration following exposure of FGFR2‐amplified gastric cancer cells (KATOIII) to patient plasma.

clinical = conditions: human, in vivo; for AUC: AUCss,0-24h; for Vd/F: Vz/F; for Tmax: median; for half-life: t½
Procedure: as §1, §2

[3] = human, in vivo
Procedure: as §1, §2

[4] = geometric mean (CV%), C1D14, 13.5 mg ID or CD, n 33
[5] = mean ± SD, C1D14, 13.5 mg ID or CD, n 33

Compound: CCN1C(=O)N(c2c(F)c(OC)cc(OC)c2F)Cc2cnc3[nH]c(CN4CCOCC4)cc3c21 [Pemigatinib]
- Median progression-free survival ([1]; FGFR fusions or rearrangements, 95% CI 2.8–10.0): 5.7 months
- Objective response rate ([1]; FGFR fusions or rearrangements, 95% CI 8.7–49.1): 25.0%
- Partial responses ([1]; across tumor types): 12 n
- Objective response rate ([1]; all patients, 95% CI 4.9–15.8): 9.4%
- Median duration of response ([1]; all responders, 95% CI 3.3–14.5): 7.3 months
- tmax, median ([2]; C1D1, 13.5 mg ID or CD, n 36): 1 h
- CLss/F, geometric mean (CV%) ([2]; C1D14, 13.5 mg ID or CD, n 33): 10.2 (55.5) L/h and 10.2 L/h
- CLss/F, mean ± SD ([2]; C1D14, 13.5 mg ID or CD, n 33): 11.6 ± 6.52 L/h
- Cmin,ss, geometric mean (CV%) ([2]; C1D14, 13.5 mg ID or CD, n 33): 56.0 (61.0) nM
- Cmin,ss, mean ± SD ([2]; C1D14, 13.5 mg ID or CD, n 33): 66.2 ± 45.2 nM
- AUC(0-t) ([2]; AUC0-24h, geometric mean (CV%), C1D1, 13.5 mg ID or CD, n 36): 1.88 µM·h
- AUC(0-t) ([2]; AUC0-24h, mean ± SD, C1D1, 13.5 mg ID or CD, n 36): 2.02 ± 0.762 µM·h
- AUC(0-t) ([2]; AUClast, geometric mean (CV%), C1D1, 13.5 mg ID or CD, n 36): 1.85 µM·h
- AUC(0-t) ([2]; AUClast, mean ± SD, C1D1, 13.5 mg ID or CD, n 36): 1.99 ± 0.748 µM·h
- AUC [2, 4]: 2.72 µM·h
- AUC [2, 5]: 3.09 ± 1.68 µM·h
- Cmax ([2]; Cmax, geometric mean (CV%), C1D1, 13.5 mg ID or CD, n 36): 216 nM
- Cmax ([2]; Cmax, mean ± SD, C1D1, 13.5 mg ID or CD, n 36): 260 ± 136 nM
- Cmax ([2]; Cmax,ss, geometric mean (CV%), C1D14, 13.5 mg ID or CD, n 33): 195 nM
- Cmax ([2]; Cmax,ss, mean ± SD, C1D14, 13.5 mg ID or CD, n 33): 238 ± 139 nM
- Vd/F [2, 4]: 201 L
- Vd/F [2, 5]: 258 ± 216 L
- Tmax ([2]; C1D1, 13.5 mg ID or CD, n 36): 1.43 h
- Tmax ([2]; C1D14, 13.5 mg ID or CD, n 33): 1.02 h
- half-life [2, 4]: 13.6 h
- half-life [2, 5]: 15.4 ± 9.03 h
- Mean increase of plasma FGF23 (FGF23; 9 mg): 2.6 fold
- Mean increase of plasma FGF23 (FGF23; 13.5 mg): 2.9 fold
- Rise of median FGF23 concentration from baseline (FGF23; 13.5 mg QD, first 2 weeks of treatment): slightly more than twofold
- Mean increase of plasma FGF23 (FGF23; 18 mg): 3.9 fold
- Patients with elevated FGF23 concentration at Day 15 of Cycle 1 (FGF23; 37/41 patients, all doses): 90%
- Mean FGF23 concentration (FGF23; C1D15, all doses, baseline 198 ± 29): 464 ± 49 pg/mL
- AUC(0-t) (clinical; 9 mg, AUC0-24h, geometric mean (CV%)): 1.12 µM·h
- AUC(0-t) (clinical; 9 mg, AUC0-24h, mean ± SD): 1.13 ± 0.133 µM·h
- AUC(0-t) (clinical; 9 mg, AUClast, geometric mean (CV%)): 1.12 µM·h
- AUC(0-t) (clinical; 9 mg, AUClast, mean ± SD): 1.12 ± 0.125 µM·h
- AUC (clinical; 9 mg, geometric mean (CV%)): 2.05 µM·h
- AUC (clinical; 9 mg, mean ± SD): 2.54 ± 2.1 µM·h
- Cmax (clinical; 9 mg, Cmax, geometric mean (CV%)): 110 nM
- Cmax (clinical; 9 mg, Cmax, mean ± SD): 114 ± 35.3 nM
- Cmax (clinical; 9 mg, Cmax,ss, geometric mean (CV%)): 127 nM
- Cmax (clinical; 9 mg, Cmax,ss, mean ± SD): 155 ± 117 nM
- Vd/F (clinical; 9 mg, geometric mean (CV%)): 209 L
- Vd/F (clinical; 9 mg, mean ± SD): 224 ± 104 L
- Tmax (clinical; 9 mg): 1.9 h
- half-life (clinical; 9 mg, geometric mean (CV%)): 16.1 h
- half-life (clinical; 9 mg, mean ± SD): 17.1 ± 7.44 h
- AUC(0-t) (clinical; 18 mg, AUC0-24h, geometric mean (CV%)): 3.31 µM·h
- AUC(0-t) (clinical; 18 mg, AUC0-24h, mean ± SD): 3.45 ± 1.02 µM·h
- AUC(0-t) (clinical; 18 mg, AUClast, geometric mean (CV%)): 3.24 µM·h
- AUC(0-t) (clinical; 18 mg, AUClast, mean ± SD): 3.38 ± 1.01 µM·h
- AUC (clinical; 18 mg, geometric mean (CV%)): 6.56 µM·h
- AUC (clinical; 18 mg, mean ± SD): 6.95 ± 2.78 µM·h
- Cmax (clinical; 18 mg, Cmax, geometric mean (CV%)): 344 nM
- Cmax (clinical; 18 mg, Cmax, mean ± SD): 431 ± 272 nM
- Cmax (clinical; 18 mg, Cmax,ss, geometric mean (CV%)): 385 nM
- Cmax (clinical; 18 mg, Cmax,ss, mean ± SD): 450 ± 285 nM
- Vd/F (clinical; 18 mg, geometric mean (CV%)): 154 L
- Vd/F (clinical; 18 mg, mean ± SD): 205 ± 188 L
- Tmax (clinical; 18 mg): 1.02 h
- half-life (clinical; 18 mg, geometric mean (CV%)): 18.9 h
- half-life (clinical; 18 mg, mean ± SD): 20.7 ± 11.2 h
- Geometric mean fraction of dose excreted in urine [3]: 2.48%
- CLss/F, geometric mean (CV%) ([3]; 9 mg): 8.99 (91.0) L/h
- CLss/F, mean ± SD ([3]; 9 mg): 10.6 ± 6.31 L/h
- tmax, median ([3]; 9 mg): 0.967 h
- CLss/F, geometric mean (CV%) ([3]; 18 mg): 5.63 (43.8) L/h
- CLss/F, mean ± SD ([3]; 18 mg): 5.96 ± 2.50 L/h
- tmax, median ([3]; 18 mg): 0.833 h
